Data reported in the NIST ThermoML archive (doi:10.1021/je0340755).

Test: xn = mol fraction of the nth substance listed
Conditions: 101.3 kPa, Liquid; for viscosity: Capillary tube (Ostwald / Ubbelohde) method

OCCCO [propan-1,3-diol] + O
Conditions	mass density [kg/m3]	speed of sound [m/s]	viscosity [mPa·s]
298.15 K, x2 = 0.0622	1050.19	1650.1	37.15
298.15 K, x2 = 0.1496	1050.32	1654.3	32.92
298.15 K, x2 = 0.2563	1050.38	1670.2	27.68
298.15 K, x2 = 0.35	1050.3	1693.5	23.09
298.15 K, x2 = 0.4555	1049.74	1717.8	18.09
298.15 K, x2 = 0.5	1049.21	1723.1	16.07
298.15 K, x2 = 0.5548	1048.18	1726.1	13.67
298.15 K, x2 = 0.6522	1044.85	1723.3	9.731
298.15 K, x2 = 0.7553	1038.16	1712.1	6.136
298.15 K, x2 = 0.8522	1027.32	1689.1	3.434
298.15 K, x2 = 0.9085	1018.19	1653.2	2.22
298.15 K, x2 = 0.9147	1017.03	1646.8	2.104
298.15 K, x2 = 0.9255	1014.92	1636.1	1.91
298.15 K, x2 = 0.935	1012.97	1623.9	1.749
298.15 K, x2 = 0.9548	1008.63	1596	1.442
298.15 K, x2 = 0.9556	1008.44	1594	1.43
298.15 K, x2 = 0.9602	1007.37	1586	1.365
298.15 K, x2 = 0.97	1005	1568.2	1.233
298.15 K, x2 = 0.9801	1002.45	1547.1	1.107
298.15 K, x2 = 0.9897	999.9	1525.3	0.997
298.15 K, x2 = 0.9921	999.25	1519.1	0.971
298.15 K, x2 = 0.9951	998.42	1511	0.939
308.15 K, x2 = 0.0622	1043.88	1627.1	25.31
308.15 K, x2 = 0.1496	1044.01	1634.1	22.46
308.15 K, x2 = 0.2563	1044.07	1645.9	18.9
308.15 K, x2 = 0.35	1043.97	1662.2	15.8
308.15 K, x2 = 0.4555	1043.39	1681	12.44
308.15 K, x2 = 0.5	1042.86	1688	11.08
308.15 K, x2 = 0.5548	1041.87	1695.1	9.49
308.15 K, x2 = 0.6522	1038.75	1702.2	6.881
308.15 K, x2 = 0.7553	1032.55	1698.8	4.495
308.15 K, x2 = 0.8522	1022.53	1676.1	2.66
308.15 K, x2 = 0.9085	1014.02	1642.1	1.794
308.15 K, x2 = 0.9147	1012.94	1637.1	1.708
308.15 K, x2 = 0.9255	1010.96	1627.1	1.562
308.15 K, x2 = 0.935	1009.13	1617.2	1.439
308.15 K, x2 = 0.9548	1005.04	1594.1	1.197
308.15 K, x2 = 0.9556	1004.87	1593.1	1.188
308.15 K, x2 = 0.9602	1003.85	1586.2	1.135
308.15 K, x2 = 0.97	1001.61	1572.1	1.025
308.15 K, x2 = 0.9801	999.19	1556.1	0.917
308.15 K, x2 = 0.9897	996.76	1539.3	0.819
308.15 K, x2 = 0.9921	996.14	1534.1	0.795
308.15 K, x2 = 0.9951	995.35	1528.8	0.766
318.15 K, x2 = 0.0622	1037.53	1609.1	15.8
318.15 K, x2 = 0.1496	1037.64	1616	14.16
318.15 K, x2 = 0.2563	1037.68	1627.8	12.19
318.15 K, x2 = 0.35	1037.55	1643	10.48
318.15 K, x2 = 0.4555	1036.94	1661	8.554
318.15 K, x2 = 0.5	1036.42	1667	7.749
318.15 K, x2 = 0.5548	1035.46	1674.1	6.767
318.15 K, x2 = 0.6522	1032.48	1682	5.075
318.15 K, x2 = 0.7553	1026.64	1683	3.415
318.15 K, x2 = 0.8522	1017.23	1666.1	2.057
318.15 K, x2 = 0.9085	1009.22	1639.2	1.397
318.15 K, x2 = 0.9147	1008.19	1635.3	1.331
318.15 K, x2 = 0.9255	1006.32	1625.9	1.221
318.15 K, x2 = 0.935	1004.59	1617.9	1.127
318.15 K, x2 = 0.9548	1000.71	1598.1	0.945
318.15 K, x2 = 0.9556	1000.54	1592.2	0.938
318.15 K, x2 = 0.9602	999.58	1580.1	0.898
318.15 K, x2 = 0.97	997.45	1566.1	0.817
318.15 K, x2 = 0.9801	995.14	1552.1	0.737
318.15 K, x2 = 0.9897	992.82	1549.9	0.667
318.15 K, x2 = 0.9921	992.23	1548.1	0.65
318.15 K, x2 = 0.9951	991.47	1543.2	0.629
328.15 K, x2 = 0.0622	1031.1	1585.1	10.49
328.15 K, x2 = 0.1496	1031.18	1591.1	9.407
328.15 K, x2 = 0.2563	1031.17	1603.2	8.114
328.15 K, x2 = 0.35	1030.98	1618.2	6.986
328.15 K, x2 = 0.4555	1030.32	1635.8	5.721
328.15 K, x2 = 0.5	1029.79	1642.1	5.192
328.15 K, x2 = 0.5548	1028.83	1649.1	4.547
328.15 K, x2 = 0.6522	1025.94	1657.8	3.436
328.15 K, x2 = 0.7553	1020.39	1661.1	2.346
328.15 K, x2 = 0.8522	1011.49	1651.2	1.456
328.15 K, x2 = 0.9085	1003.89	1630	1.024
328.15 K, x2 = 0.9147	1002.92	1626.2	0.981
328.15 K, x2 = 0.9255	1001.14	1620.2	0.909
328.15 K, x2 = 0.935	999.49	1613.2	0.848
328.15 K, x2 = 0.9548	995.78	1597.2	0.729
328.15 K, x2 = 0.9556	995.62	1596.1	0.725
328.15 K, x2 = 0.9602	994.7	1591.8	0.699
328.15 K, x2 = 0.97	992.65	1582.1	0.646
328.15 K, x2 = 0.9801	990.44	1571.1	0.594
328.15 K, x2 = 0.9897	988.21	1559.2	0.549
328.15 K, x2 = 0.9921	987.63	1556.2	0.538
328.15 K, x2 = 0.9951	986.91	1552.2	0.524
338.15 K, x2 = 0.0622	1024.56	1565.1	7.386
338.15 K, x2 = 0.1496	1024.59	1571.2	6.633
338.15 K, x2 = 0.2563	1024.49	1582.3	5.732
338.15 K, x2 = 0.35	1024.2	1594.8	4.946
338.15 K, x2 = 0.4555	1023.41	1611.1	4.065
338.15 K, x2 = 0.5	1022.84	1616.8	3.696
338.15 K, x2 = 0.5548	1021.85	1623.9	3.247
338.15 K, x2 = 0.6522	1019	1634.1	2.473
338.15 K, x2 = 0.7553	1013.69	1639	1.715
338.15 K, x2 = 0.8522	1005.25	1632	1.096
338.15 K, x2 = 0.9085	998.04	1616	0.797
338.15 K, x2 = 0.9147	997.1	1613.2	0.767
338.15 K, x2 = 0.9255	995.41	1608.2	0.717
338.15 K, x2 = 0.935	993.83	1603.1	0.675
338.15 K, x2 = 0.9548	990.28	1591.1	0.593
338.15 K, x2 = 0.9556	990.13	1591.3	0.59
338.15 K, x2 = 0.9602	989.24	1587.1	0.572
338.15 K, x2 = 0.97	987.28	1579.9	0.536
338.15 K, x2 = 0.9801	985.14	1571	0.501
338.15 K, x2 = 0.9897	982.99	1562	0.469
338.15 K, x2 = 0.9921	982.43	1559.1	0.462
338.15 K, x2 = 0.9951	981.73	1556	0.453
